We go through four compounds from patent US20250186541A1, “DLL3 TARGETING PEPTIDES AND CONSTRUCTS THEREOF” (MARIANA ONCOLOGY INC., priority 2023, published 2025).

The subject of assay [1] is SHP-77 cells. Kind of assay: Cell binding (total uptake) of [177Lu]Lu-labeled peptide, gamma counter bound fraction. It is filed as cell-based, human. The note with it: [177Lu]Lu-test peptide, 1 h, 37° C., 1% PBSA. Here is the method:
(§1) Example 4. Cell Binding, Internalization, and Radiolabeling of Targeting Moieties Polypeptides General Procedure for Radiolabeling of RPTs with [^177Lu]LuCl3
(§2) [^177Lu]LuCl3 was received from venders in HCl solution. For every mCi of [^177Lu]LUCl3 added to the reaction vial (1.5 mL Eppendorf vial), ammonium acetate buffer (0.2 M, pH 4.9, 100 μL, containing 1% w/v ascorbic acid and 6% v/v ethanol) and peptide conjugate (1 nmol) was added. The pH of the solution was determined to be approximately 5 by using pH strips. The reaction vial was incubated at 80° C., 700 RPM for 17-20 minutes. A sample from the reaction was analyzed by RP-HPLC using an Agilent Infinity II 1260 HPLC to determine reaction completion and radiochemical purity. HPLC conditions: Waters XBridge BEH […] Column, 130 Å, 3.5 um, 4.6 mm×250 mm; mobile phase: Solvent A=water (with 0.1% formic acid), solvent B=acetonitrile (with 0.1% formic acid). Gradients: 25-45% B in 10 minutes, 45-65% B in 12 minutes, 65-90% in 6 minutes at a flow rate of 0.5 mL/min. Required amounts of the product was formulated in 1% PBSA for cell studies.
(§3) The study was conducted using SHP-77cells (Table 7) Adherent cell studies: The cells were cultured in appropriate culture media (20 mL) in tissue culture treated T150 flasks at 37° C. and 5% CO2. Adherent cells were detached (60-70% confluent) using 5 mL Versene at 37° C. for 3 min. After confirming the viability using countess and count of detached cells using Trypan blue, the cells were centrifuged at 4° C. for 5 minutes (1,000 rpm). The cell pellet obtained was washed once with PBS and resuspended in 1% PBSA to obtain the desired cell concentration (5-25 million cells/mL).
(§4) Suspension cell studies: The cells were cultured in appropriate culture media (20 mL) in tissue culture treated T150 flasks at 37° C. and 5% CO2. After confirming the viability and count of detached cells using Trypan blue, the cells were centrifuged at 4° C. for 5 minutes (1,000 rpm). The cell pellet obtained was washed once with PBS and resuspended in 1% PBSA to obtain the desired cell concentration (5-25 million cells/mL).
(§5) Cell numbers used for the assay were in the range of 5 million cells/condition −25 million cells/condition.
Total uptake: Cells were incubated with 300 μL (0.8 μCi) of the incubation buffer (containing radiolabeled peptide [^177Lu]Lu-test peptide) for 1 hour at 37 C (Table 8). Post incubation, the cells were pelleted and washed 2 times using cold PBS+1% BSA. The supernatant and washes were combined and counted together as “unbound fraction” in a gamma counter. The cells were then resuspended in 300 μL of 1% PBS+1% BSA and counted in the gamma counter as “bound fraction”.
(§6) SHP-77 cells are human-derived, non-engineered SCLC cells.

Assay [2] has as its target T1, human DLL3 (Homo sapiens, UniProt Q9NYJ7).
T1 construct: biotin (biotinylated)
T1 sequence (Q9NYJ7 27-618): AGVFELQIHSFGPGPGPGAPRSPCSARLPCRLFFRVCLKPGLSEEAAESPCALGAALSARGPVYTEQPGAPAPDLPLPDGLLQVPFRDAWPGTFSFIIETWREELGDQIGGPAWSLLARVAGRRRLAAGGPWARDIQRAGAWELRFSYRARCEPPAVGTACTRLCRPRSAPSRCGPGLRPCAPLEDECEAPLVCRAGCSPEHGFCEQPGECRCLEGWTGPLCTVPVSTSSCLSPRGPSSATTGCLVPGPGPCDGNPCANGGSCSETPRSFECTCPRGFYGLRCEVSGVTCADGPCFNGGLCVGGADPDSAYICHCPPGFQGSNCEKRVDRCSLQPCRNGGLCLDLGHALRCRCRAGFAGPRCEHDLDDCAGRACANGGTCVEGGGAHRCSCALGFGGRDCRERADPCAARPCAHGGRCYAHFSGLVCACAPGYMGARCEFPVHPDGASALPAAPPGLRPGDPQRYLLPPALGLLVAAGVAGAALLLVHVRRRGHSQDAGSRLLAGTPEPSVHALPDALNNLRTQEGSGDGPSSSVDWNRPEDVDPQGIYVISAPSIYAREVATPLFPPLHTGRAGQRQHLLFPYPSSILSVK
Kind of assay: Affinity determination by Surface Plasmon Resonance (SPR), Biacore, 1:1 binding model. The following applies: biotinylated human DLL3 on streptavidin chip, 25° C.; NB = nonbinding. In a few lines:
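SPR with biotinylated human DLL3 captured on a streptavidin chip, with a reference surface subtracted. Samples were injected at several concentrations at 100 μL/min in phosphate buffer with 137 mM NaCl, 2.7 mM KCl, 0.05% P20 and 2% DMSO. Kinetic and affinity constants came from a 1:1 binding fit.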

The test system of assay [3] is SHP-77 cells. The assay can be described thus: Internalization of [177Lu]Lu-labeled peptide after glycine acid wash, gamma counter internalized fraction. The class given is cell-based, human. The note with it: [177Lu]Lu-test peptide, 1 h, 37° C., acid wash 50 mM Glycine pH 2.5. The method, then: as §1, §2, §3, §4, §5
Internalization: The resuspended cells in 300 μl of 1% PBSA and counted in the gamma counter as “bound fraction” were collected in 1.5 ml Eppendorf tube and pelleted. The pelleted cells were incubated with 300 μl of 50 mM Glycine pH=2.5 for 3 minutes and then pelleted discarding the supernatant. This process was repeated one more time. The pelleted cells were washed with 300 μl of cold 1% PBSA and then resuspended in 300 μl 0.3M NaOH. This was counted in the gamma counter as “internalized fraction”.
as §6

Bridge positions count the residues as written; N and C are the ends. Square brackets hold non-standard residues; d marks the D form. Peptide text beside a SMILES is read from it. * marks the point of attachment. DOTA = O=C(O)CN1CCN(CC(=O)O)CCN(CC(=O)*)CCN(CC(=O)O)CC1; Phe(4-CH2NH2) = NCc1ccc(C[C@H](N)C(=O)O)cc1; 1Nal = N[C@@H](Cc1cccc2ccccc12)C(=O)O; 2Nal = N[C@@H](Cc1ccc2ccccc2c1)C(=O)O; Phe(2-Me) = Cc1ccccc1C[C@H](N)C(=O)O; tBuAla = CC(C)(C)C[C@H](N)C(=O)O; αMeD = C[C@](N)(CC(=O)O)C(=O)O; Chg = N[C@H](C(=O)O)C1CCCCC1; αMeP = C[C@@]1(C(=O)O)CCCN1

Broadly, the Kd is the constant that tells how readily two partners part at equilibrium. A high value points to weaker binding. As for `CC(=O)N[C@H](C)C(=O)N[C@@H](CO)C(=O)N[C@@H](CC(=O)O)C(=O)N[C@H]1CSSC[C@@H](C(=O)N2CCC[C@@]2(C)C(=O)N[C@@H](Cc2ccccc2)C(=O)N[C@@H](CC(=O)O)C(N)=O)NC(=O)[C@H](CC(N)=O)NC(=O)[C@H](Cc2ccc3ccccc3c2)NC(=O)[C@H](Cc2ccc(CNC(=O)CN3CCN(CC(=O)O)CCN(CC(=O)O)CCN(CC(=O)O)CC3)cc2)NC(=O)[C@H](CC(C)(C)C)NC(=O)[C@H](Cc2cccc3ccccc23)NC1=O` [Cpd #158, Ac-(D-Ala)-S-D-C(3)-(1Nal)-(t-Bu-Ala)-[PAF(DOTA)]-(2Nal)-N-C(3)-(aMe-P)-F -D-CONH2] (Ac-[dA]SDC[1Nal][tBuAla][Phe(4-CH2NH2)](DOTA)[2Nal]NC[αMeP]FD-NH2; disulfide 4-10), the “% Binding” value in assay [1] was 25%. This compound registered a dissociation constant (Kd) in assay [2] of 120 pM. Besides, in assay [3], the “% Internalization (out of bound fraction)” value was 63%.

Turning to `CC(=O)N[C@H](C)C(=O)N[C@@H](CO)C(=O)N[C@@](C)(CC(=O)O)C(=O)N[C@H]1CSSC[C@@H](C(=O)N2CCC[C@@]2(C)C(=O)N[C@@H](Cc2ccccc2)C(=O)N[C@@H](CC(=O)O)C(=O)N[C@H](CCCCNC(=O)CN2CCN(CC(=O)O)CCN(CC(=O)O)CCN(CC(=O)O)CC2)C(N)=O)NC(=O)[C@H](CC(N)=O)NC(=O)[C@H](Cc2ccc3ccccc3c2)NC(=O)[C@H](CCC(N)=O)NC(=O)[C@H](CC(C)(C)C)NC(=O)[C@H](Cc2cccc3ccccc23)NC1=O` [Cpd #168, Ac-(D-Ala)-S-(aMe-Asp)-C(3)-(1Nal)-(t-Bu-Ala)-Q-(2Nal)-N-C(3)-(aMe-P)-F-D-[D-Lys(DOTA)]-NH2] (Ac-[dA]S[αMeD]C[1Nal][tBuAla]Q[2Nal]NC[αMeP]FD[dK](DOTA)-NH2; disulfide 4-10), in assay [1], the “% Binding” value stood at 8%. The Kd in assay [2] was 26 pM. In addition, in assay [3], the “% Internalization (out of bound fraction)” value was 59%.

With `CC(=O)N[C@H](C(=O)N[C@@H](CO)C(=O)N[C@@H](CC(=O)O)C(=O)N[C@H]1CSSC[C@@H](C(=O)N2CCC[C@@]2(C)C(=O)N[C@@H](Cc2ccccc2)C(=O)N[C@@H](CC(=O)O)C(=O)N[C@H](CCCCNC(=O)CN2CCN(CC(=O)O)CCN(CC(=O)O)CCN(CC(=O)O)CC2)C(N)=O)NC(=O)[C@H](CC(N)=O)NC(=O)[C@H](Cc2ccc3ccccc3c2)NC(=O)[C@H](CCC(N)=O)NC(=O)[C@H](C2CCCCC2)NC(=O)[C@H](Cc2cccc3ccccc23)NC1=O)C1CCCCC1` [compound 125, Ac-(Chg)-S-D-C(3)-(1Nal)-(Chg)-Q-(2Nal)-N-C(3)-(aMe-P)-F-D-D-Lys(DOTA)-CONH2] (Ac-[Chg]SDC[1Nal][Chg]Q[2Nal]NC[αMeP]FD[dK](DOTA)-NH2; disulfide 4-10), the “% Binding” value in assay [1] was determined as 17%. Also, the Kd in assay [2] turned out to be 160 pM. In addition, the “% Internalization (out of bound fraction)” value in assay [3] came out at 51%.

Regarding `Cc1ccccc1C[C@H](NC(=O)[C@]1(C)CCCN1C(=O)[C@@H]1CSSC[C@H](NC(=O)[C@H](CC(=O)O)NC(=O)[C@H](CO)NC(=O)[C@@H](C)NC(=O)CN2CCN(CC(=O)O)CCN(CC(=O)O)CCN(CC(=O)O)CC2)C(=O)N[C@@H](Cc2cccc3ccccc23)C(=O)N[C@@H](CC(C)(C)C)C(=O)N[C@@H](CCC(N)=O)C(=O)N[C@@H](Cc2ccc3ccccc3c2)C(=O)N[C@@H](CC(N)=O)C(=O)N1)C(=O)N[C@@H](CC(=O)O)C(N)=O` [compound 154, DOTA-(D-Ala)-S-D-C(3)-(1Nal)-(t-Bu-Ala)-Q-(2Nal)-N-C(3)-(aMe-P)-(2Me-F)-D-CONH2] ({DOTA}-[dA]SDC[1Nal][tBuAla]Q[2Nal]NC[αMeP][Phe(2-Me)]D-NH2; disulfide 4-10), the “% Binding” value in assay [1] stood at 10%. In assay [2], binding was characterised by a dissociation constant (Kd) of 180 pM. For the same compound, in assay [3], the “% Internalization (out of bound fraction)” value turned out to be 58%.
